Test results taken from patent US20240122867A1, “CORONAL PROTEIN-COATED NANOPARTICLES AND USES THEREOF” (UNIVERSITY OF CENTRAL FLORIDA RESEARCH FOUNDATION, INC., priority 2021, published 2024).

Test system: MDA-MB-231 cells
Experiment: cells
Format: cell-based, human

SMILES: CC(=O)O[C@H]1C(=O)[C@@]2(C)[C@H]([C@H](OC(=O)c3ccccc3)[C@]3(O)C[C@H](OC(=O)[C@H](O)[C@@H](NC(=O)c4ccccc4)c4ccccc4)C(C)=C1C3(C)C)[C@]1(OC(C)=O)CO[C@@H]1C[C@@H]2O [taxol, paclitaxel]
- IC50 (Homo sapiens, MDA-MB-231, read-out: IC50 dose): ~50 nM
- reduction of MDA-MB-231 viability (free taxol, 43 μg dose, 24 h): ~50%
